# Entries after “also recorded” stand apart in the source; their conditions may differ.
# What was measured:
# [1] = target: T1, B-RAF-VE (Homo sapiens, UniProt P15056, V600E); assay: radiometric protein kinase assay (33PanQinase Activity Assay); type: biochemical; conditions: panel of 24 kinases, 1 μM ATP, read-out: Inhibition of Kinases IC50
# T1 construct: made in house; host or cells: Sf9 insect cells (baculovirus)
# Procedure: (§1) Radicicol A (1) and analogues 3 and 31 were tested for its inhibition in a panel of 24 kinase (AKT1, ARKS, Aurora-A, Aurora-B, B-RAF-VE, CDK2/CycA, CDK4/CycD1, CK2-α1, FAK, EPHB4, ERB2, EGF-R, IGF1-R, SRC, VEGF-R2, VEGF-R3, FLT3, INS-R, MET, PDGFR-β, PLK1, SAK, TIE2, COT) at 10 μM using the procedure described below.
# (§2) All protein kinases were expressed in Sf9 insect cells as human recombinant GST-fusion proteins or His-tagged proteins by means of the baculovirus expression system. Kinases were purified by affinity chromatography using either GSH-agarose (Sigma) or Ni-NTH-agarose (Qiagen). The purity of each kinase was checked by SDS-PAGE/silver staining and the identity of each kinase was verified by western blot analysis with kinase specific antibodies or by mass spectroscopy.
# (§3) A radiometric protein kinase assay (^33PanQinase® Activity Assay) was used for measuring the kinase activity of the 24 protein kinases. All kinase assays were performed in 96-well FIashPlates™ from Perkin Elmer (Boston, Mass., USA) in a 50 μl reaction volume. […]
# (§4) The reaction cocktails were incubated at 30° C. for 80 minutes. […] Incorporation of ^33Pi was determined with a microplate scintillation counter (Microbeta Trilux, Wallac). […]
# [2] = target: T2, FLT3 (Homo sapiens, UniProt P36888); assay: as above; type: biochemical; conditions: for Inhibition of Kinases IC50 / IC50: panel of 24 kinases, 1 μM ATP; for IC50: read-out: Inhibition of Kinases IC50
# T2 construct: made in house; host or cells: Sf9 insect cells (baculovirus)
# T2 sequence (P36888 27-993): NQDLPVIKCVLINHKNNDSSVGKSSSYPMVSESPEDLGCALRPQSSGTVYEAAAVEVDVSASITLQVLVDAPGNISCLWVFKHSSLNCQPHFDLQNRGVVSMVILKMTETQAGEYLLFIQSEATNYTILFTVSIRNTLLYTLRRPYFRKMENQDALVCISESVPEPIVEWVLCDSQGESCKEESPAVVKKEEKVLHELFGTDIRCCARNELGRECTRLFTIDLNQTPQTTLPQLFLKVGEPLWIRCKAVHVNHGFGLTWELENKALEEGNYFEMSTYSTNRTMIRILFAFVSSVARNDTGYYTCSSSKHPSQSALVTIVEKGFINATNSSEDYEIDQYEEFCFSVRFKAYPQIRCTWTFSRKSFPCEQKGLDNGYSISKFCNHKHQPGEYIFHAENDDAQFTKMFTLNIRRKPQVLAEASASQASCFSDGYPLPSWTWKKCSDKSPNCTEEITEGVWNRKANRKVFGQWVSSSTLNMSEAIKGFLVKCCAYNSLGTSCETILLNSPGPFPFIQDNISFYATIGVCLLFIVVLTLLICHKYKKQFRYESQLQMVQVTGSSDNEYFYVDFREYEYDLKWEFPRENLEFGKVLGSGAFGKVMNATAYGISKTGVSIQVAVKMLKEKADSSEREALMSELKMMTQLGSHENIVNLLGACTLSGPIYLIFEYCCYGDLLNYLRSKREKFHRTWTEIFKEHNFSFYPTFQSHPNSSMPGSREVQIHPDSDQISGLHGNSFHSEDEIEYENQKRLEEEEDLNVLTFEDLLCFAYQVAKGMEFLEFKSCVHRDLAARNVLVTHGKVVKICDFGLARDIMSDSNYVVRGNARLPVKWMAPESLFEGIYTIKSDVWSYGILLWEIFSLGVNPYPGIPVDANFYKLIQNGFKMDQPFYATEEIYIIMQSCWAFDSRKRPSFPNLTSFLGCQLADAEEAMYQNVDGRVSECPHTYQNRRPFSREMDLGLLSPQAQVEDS
# Procedure: as §1, §2
# (§5) A radiometric protein kinase assay (^33PanQinase® Activity Assay) was used for measuring the kinase activity of the 24 protein kinases. All kinase assays were performed in 96-well FIashPlates™ from Perkin Elmer (Boston, Mass., USA) in a 50 μl reaction volume. The reaction cocktail was pipetted in 4 steps in the following order: • 20 μl of assay buffer • 5 μl of ATP solution (in H2O) • 5 μl of test compound (in 10% DMSO) • 10 μl of substrate/10 μl of enzyme solution (premixed)
# (§6) The assay for all enzymes contained 60 mM HEPES-NaOH, pH 7.5, 3 mM MgCl2, 3 mM MnCl2, 3 μM Na-orthovanadate, 1.2 mM DTT, 50 μg/ml PEG20000, 1 μM [γ-^33P]-ATP (approx. 5×10^05 cpm per well).
# (§7) The reaction cocktails were incubated at 30° C. for 80 minutes. The reaction was stopped with 50 μl of 2% (v/v) H3PO4, plates were aspirated and washed two times with 200 μl of 0.9% (w/v) NaCl or 200 μl H2O. Incorporation of ^33Pi was determined with a microplate scintillation counter (Microbeta Trilux, Wallac). All assays were performed with a BeckmanCoulter/Sagian robotic system.
# (§8) Using the same method described above, compound 31 was evaluated in a panel of 127 kinase enzymes.
# [3] = target: T3, VEGF-R3 (Homo sapiens, UniProt P35916); assay: as above; type: biochemical; conditions: for Inhibition of Kinases IC50 / IC50: panel of 24 kinases, 1 μM ATP; for IC50: read-out: Inhibition of Kinases IC50
# T3 construct: made in house; host or cells: Sf9 insect cells (baculovirus)
# T3 sequence (P35916 25-1363): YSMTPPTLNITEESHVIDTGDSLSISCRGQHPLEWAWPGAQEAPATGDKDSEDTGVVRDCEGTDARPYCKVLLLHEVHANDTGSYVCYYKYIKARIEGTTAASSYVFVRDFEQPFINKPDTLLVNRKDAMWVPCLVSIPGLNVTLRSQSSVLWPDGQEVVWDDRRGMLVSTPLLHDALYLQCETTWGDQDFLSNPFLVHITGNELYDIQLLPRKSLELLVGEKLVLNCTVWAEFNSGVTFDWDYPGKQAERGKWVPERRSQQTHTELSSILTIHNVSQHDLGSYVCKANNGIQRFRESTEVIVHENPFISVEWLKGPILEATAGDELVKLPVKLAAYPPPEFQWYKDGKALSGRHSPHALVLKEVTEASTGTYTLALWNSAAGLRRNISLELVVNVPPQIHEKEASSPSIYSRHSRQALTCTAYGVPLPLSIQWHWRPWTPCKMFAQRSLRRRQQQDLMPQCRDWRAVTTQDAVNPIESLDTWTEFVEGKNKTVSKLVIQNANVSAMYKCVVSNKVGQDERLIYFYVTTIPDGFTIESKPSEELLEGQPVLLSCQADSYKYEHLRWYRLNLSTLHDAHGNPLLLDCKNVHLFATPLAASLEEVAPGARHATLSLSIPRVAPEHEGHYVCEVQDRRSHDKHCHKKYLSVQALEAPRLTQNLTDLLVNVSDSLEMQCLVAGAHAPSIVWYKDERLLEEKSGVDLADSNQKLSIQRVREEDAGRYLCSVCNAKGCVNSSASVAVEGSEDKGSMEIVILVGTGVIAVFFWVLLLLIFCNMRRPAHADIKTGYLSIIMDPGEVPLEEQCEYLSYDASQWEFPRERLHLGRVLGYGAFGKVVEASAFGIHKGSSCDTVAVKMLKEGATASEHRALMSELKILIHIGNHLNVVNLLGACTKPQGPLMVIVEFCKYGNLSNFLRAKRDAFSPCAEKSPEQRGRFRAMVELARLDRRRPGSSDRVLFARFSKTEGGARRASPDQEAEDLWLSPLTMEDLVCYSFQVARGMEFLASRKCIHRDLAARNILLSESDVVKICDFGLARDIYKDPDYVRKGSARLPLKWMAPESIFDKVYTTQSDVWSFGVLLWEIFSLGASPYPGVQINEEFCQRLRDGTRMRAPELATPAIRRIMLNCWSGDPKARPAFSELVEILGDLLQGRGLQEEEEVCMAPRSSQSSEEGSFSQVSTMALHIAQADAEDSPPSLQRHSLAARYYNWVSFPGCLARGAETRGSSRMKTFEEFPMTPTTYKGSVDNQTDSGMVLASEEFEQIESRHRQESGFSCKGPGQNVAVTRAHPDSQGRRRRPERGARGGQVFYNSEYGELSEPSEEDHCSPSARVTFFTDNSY
# Procedure: as §1, §2, §5, §6, §7, §8
# [4] = target: T4, VEGF-R2 (Homo sapiens, UniProt P35968); assay: as above; type: biochemical; parameters: made in house; host or cells: Sf9 insect cells (baculovirus); conditions: for Inhibition of Kinases IC50 / IC50: panel of 24 kinases, 1 μM ATP; for IC50: read-out: Inhibition of Kinases IC50
# T4 sequence (P35968 20-1356): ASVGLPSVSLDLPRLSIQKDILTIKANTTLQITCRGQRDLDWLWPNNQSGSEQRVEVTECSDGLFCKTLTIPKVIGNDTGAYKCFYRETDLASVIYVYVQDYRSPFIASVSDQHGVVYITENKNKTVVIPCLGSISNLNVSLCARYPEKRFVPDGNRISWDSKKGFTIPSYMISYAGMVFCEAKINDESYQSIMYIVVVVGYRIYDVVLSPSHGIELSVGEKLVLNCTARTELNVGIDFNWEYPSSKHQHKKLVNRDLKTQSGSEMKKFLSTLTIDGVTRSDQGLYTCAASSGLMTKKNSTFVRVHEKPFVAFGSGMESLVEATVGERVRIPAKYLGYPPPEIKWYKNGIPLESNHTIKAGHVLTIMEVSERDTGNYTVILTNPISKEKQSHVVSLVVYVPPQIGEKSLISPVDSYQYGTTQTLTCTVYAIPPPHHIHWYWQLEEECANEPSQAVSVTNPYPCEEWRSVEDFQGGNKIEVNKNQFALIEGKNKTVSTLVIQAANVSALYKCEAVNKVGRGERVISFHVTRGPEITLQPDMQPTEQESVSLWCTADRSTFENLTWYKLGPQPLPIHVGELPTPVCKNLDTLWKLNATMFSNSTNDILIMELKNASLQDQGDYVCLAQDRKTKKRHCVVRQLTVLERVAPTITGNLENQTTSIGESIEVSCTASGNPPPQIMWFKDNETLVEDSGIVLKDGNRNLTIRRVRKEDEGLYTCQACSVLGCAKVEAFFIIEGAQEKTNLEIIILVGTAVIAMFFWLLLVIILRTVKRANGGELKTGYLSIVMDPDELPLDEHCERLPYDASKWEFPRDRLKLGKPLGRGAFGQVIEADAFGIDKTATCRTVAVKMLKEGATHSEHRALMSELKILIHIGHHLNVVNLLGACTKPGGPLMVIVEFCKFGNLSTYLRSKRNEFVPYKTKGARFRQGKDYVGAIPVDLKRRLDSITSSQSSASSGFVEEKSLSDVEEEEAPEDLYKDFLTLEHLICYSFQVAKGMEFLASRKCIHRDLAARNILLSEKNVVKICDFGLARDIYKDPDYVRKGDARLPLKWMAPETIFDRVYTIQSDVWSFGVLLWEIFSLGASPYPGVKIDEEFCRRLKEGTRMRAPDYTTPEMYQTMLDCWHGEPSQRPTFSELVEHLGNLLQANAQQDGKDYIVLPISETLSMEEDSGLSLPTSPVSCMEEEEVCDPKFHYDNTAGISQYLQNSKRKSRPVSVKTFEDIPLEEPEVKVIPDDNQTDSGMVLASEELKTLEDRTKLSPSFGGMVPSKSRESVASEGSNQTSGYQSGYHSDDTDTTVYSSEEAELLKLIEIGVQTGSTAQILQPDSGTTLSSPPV
# Procedure: as §1, §2, §5, §6, §7, §8
# [5] = target: T5, PDGFR-beta (Homo sapiens, UniProt P09619); assay: as above; type: biochemical; conditions: for Inhibition of Kinases IC50 / IC50: PDGFR-beta, panel of 24 kinases, 1 μM ATP; for IC50: read-out: Inhibition of Kinases IC50
# T5 construct: made in house; host or cells: Sf9 insect cells (baculovirus)
# T5 sequence (P09619 33-1106): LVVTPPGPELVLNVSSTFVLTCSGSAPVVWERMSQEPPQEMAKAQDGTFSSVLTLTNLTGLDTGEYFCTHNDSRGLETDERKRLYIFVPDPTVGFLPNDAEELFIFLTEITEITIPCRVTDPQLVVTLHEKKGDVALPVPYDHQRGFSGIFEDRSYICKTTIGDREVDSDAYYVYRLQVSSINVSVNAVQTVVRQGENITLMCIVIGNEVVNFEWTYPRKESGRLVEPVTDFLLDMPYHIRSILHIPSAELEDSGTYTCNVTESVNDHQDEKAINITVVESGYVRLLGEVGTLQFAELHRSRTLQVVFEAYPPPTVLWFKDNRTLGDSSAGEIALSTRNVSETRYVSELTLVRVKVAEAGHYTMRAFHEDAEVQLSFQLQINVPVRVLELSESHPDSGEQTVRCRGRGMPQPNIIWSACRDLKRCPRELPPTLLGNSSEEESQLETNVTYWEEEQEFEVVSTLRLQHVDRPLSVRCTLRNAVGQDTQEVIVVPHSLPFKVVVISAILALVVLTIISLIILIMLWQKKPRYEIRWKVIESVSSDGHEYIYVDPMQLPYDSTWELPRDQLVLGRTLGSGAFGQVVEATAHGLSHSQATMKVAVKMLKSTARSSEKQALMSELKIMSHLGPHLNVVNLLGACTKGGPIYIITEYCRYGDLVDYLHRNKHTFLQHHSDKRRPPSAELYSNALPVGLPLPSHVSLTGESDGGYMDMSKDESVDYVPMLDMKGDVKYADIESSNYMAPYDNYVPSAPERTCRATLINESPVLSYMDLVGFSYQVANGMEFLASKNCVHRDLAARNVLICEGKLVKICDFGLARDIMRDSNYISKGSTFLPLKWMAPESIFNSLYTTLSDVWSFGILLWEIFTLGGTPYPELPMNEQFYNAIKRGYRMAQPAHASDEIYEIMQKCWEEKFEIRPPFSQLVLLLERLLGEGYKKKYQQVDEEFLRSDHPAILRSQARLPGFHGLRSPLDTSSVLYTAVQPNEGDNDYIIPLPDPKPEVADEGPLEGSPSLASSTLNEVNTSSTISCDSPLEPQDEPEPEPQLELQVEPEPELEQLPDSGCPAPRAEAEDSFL
# Description: as §2, §5, §6, §7, §8
# [6] = target: T6, MEK1 (Homo sapiens, UniProt Q02750); assay: panel of 127 kinases, radiometric protein kinase assay; type: biochemical; conditions: FIG. 1, result in words
# T6 construct: made in house; host or cells: Sf9 insect cells (baculovirus)
# T6 sequence (Q02750 whole entry): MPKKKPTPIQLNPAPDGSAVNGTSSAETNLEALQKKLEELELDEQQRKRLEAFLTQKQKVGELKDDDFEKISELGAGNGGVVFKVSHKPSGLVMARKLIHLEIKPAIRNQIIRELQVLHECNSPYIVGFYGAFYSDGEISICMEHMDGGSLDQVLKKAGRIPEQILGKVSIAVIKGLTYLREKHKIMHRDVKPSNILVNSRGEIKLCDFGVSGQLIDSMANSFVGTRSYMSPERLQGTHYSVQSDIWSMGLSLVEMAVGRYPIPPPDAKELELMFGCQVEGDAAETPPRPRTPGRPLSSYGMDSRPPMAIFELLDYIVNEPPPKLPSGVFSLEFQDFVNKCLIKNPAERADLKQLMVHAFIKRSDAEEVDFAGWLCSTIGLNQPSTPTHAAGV
# Description: as §2, §5, §6, §4, §8
# [7] = target: T7, PDGFR-α (Homo sapiens, UniProt P16234); assay: as above; type: biochemical; conditions: FIG. 1, result in words
# T7 construct: made in house; host or cells: Sf9 insect cells (baculovirus)
# Description: as §2, §5, §6, §4, §8
# [8] = target: T4, VEGF-R2; assay: VEGF-R2 autophosphorylation in presence of VEGF165 in immortalized HUVECs (ELISA); type: cell-based; conditions: 90 min incubation, then VEGF165 for 7 min, read-out: cellular IC50, VEGF-R2 autophosphorylation
# Procedure: The potential efficacy of Compound 31 in vivo was assessed by measuring the level of VEGF-R2 autophosphorylation in the presence of its ligand (VEGF165). Thus immortalized HUVECs known to express high levels of VEGF-R2 were incubated with inhibitor 31 for 90 min. and then stimulated with VEGF165 for 7 min. The level of autophosphorylation was measured by ELISA using antiVEGF-R2 as capture antibody and anti-phosphotyrosine as detection antibody. Results are expressed as percentage of maximal autophosphorylation in the absence of inhibitor (FIGS. 1 and 2).
# A number of RALs such as pochonins C and D are substituted with a chlorine atom at the 5 position rather than a methoxy, as with analogue 31. […] The potential efficacy of this compound in vivo was then assessed by measuring the level of VEGF-R2 autophosphorylation in the presence of its ligand (VEGF165). […] The level of autophosphorylation was measured by ELISA using antiVEGF-R2 as capture antibody and anti-phosphotyrosine as detection antibody. Results are expressed as percentage of maximal autophosphorylation in the absence of inhibitor (FIG. 3).
# The potential efficacy of compound 31 in vivo was assessed by measuring the level of VEGF-R2 autophosphorylation in the presence of its ligand (VEGF165). […] The level of autophosphorylation was measured by ELISA using antiVEGF-R2 as capture antibody and anti-phosphotyrosine as detection antibody. […]
# [9] = target: PDGFR-β (Homo sapiens, UniProt P09619); assay: PDGFR-β autophosphorylation; type: cell-based; conditions: cellular autophosphorylation
# PDGFR-β, sequence (P09619 33-1106, species assumed): as the sequence (P09619 33-1106) above
# [10] = target: TIE2 (Homo sapiens, UniProt Q02763); assay: autophosphorylation of TIE2; type: cell-based; conditions: cellular autophosphorylation; result in words
# [11] = target: T8, EPHB4 (Homo sapiens, UniProt P54760); assay: radiometric protein kinase assay (33PanQinase Activity Assay); type: biochemical; conditions: panel of 24 kinases, 1 μM ATP, read-out: Inhibition of Kinases IC50
# T8 construct: made in house; host or cells: Sf9 insect cells (baculovirus)
# T8 sequence (P54760 16-987): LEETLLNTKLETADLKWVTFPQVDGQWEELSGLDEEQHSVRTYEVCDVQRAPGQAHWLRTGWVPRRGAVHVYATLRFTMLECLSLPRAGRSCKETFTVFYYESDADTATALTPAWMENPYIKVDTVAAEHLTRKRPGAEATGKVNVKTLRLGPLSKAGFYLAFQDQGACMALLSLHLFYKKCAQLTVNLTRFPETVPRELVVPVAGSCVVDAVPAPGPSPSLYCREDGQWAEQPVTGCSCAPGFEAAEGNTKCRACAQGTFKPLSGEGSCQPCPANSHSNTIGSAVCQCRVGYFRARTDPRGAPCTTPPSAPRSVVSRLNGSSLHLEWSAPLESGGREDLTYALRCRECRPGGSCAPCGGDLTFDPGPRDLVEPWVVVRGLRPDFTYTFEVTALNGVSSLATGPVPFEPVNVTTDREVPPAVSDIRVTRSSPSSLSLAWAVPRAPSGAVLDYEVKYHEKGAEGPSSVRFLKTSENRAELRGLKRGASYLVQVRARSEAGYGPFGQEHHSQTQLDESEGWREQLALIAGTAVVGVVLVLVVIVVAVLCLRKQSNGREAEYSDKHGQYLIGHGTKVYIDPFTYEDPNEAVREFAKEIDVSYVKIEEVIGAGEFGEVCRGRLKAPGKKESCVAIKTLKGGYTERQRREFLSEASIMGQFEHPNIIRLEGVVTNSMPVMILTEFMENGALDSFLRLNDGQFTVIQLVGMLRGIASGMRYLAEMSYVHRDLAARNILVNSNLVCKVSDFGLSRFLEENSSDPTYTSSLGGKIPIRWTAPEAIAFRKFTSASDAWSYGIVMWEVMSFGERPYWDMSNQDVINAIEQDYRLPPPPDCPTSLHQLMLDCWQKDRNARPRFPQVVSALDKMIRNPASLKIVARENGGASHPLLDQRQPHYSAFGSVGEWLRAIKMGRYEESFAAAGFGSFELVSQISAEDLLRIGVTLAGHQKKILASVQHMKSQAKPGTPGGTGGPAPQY
# Procedure: as §1, §2, §3, §4
# [12] = target: T9, SRC (Homo sapiens, UniProt P12931); assay: as above; type: biochemical; conditions: panel of 24 kinases, 1 μM ATP, read-out: Inhibition of Kinases IC50
# T9 construct: made in house; host or cells: Sf9 insect cells (baculovirus)
# T9 sequence (P12931 whole entry): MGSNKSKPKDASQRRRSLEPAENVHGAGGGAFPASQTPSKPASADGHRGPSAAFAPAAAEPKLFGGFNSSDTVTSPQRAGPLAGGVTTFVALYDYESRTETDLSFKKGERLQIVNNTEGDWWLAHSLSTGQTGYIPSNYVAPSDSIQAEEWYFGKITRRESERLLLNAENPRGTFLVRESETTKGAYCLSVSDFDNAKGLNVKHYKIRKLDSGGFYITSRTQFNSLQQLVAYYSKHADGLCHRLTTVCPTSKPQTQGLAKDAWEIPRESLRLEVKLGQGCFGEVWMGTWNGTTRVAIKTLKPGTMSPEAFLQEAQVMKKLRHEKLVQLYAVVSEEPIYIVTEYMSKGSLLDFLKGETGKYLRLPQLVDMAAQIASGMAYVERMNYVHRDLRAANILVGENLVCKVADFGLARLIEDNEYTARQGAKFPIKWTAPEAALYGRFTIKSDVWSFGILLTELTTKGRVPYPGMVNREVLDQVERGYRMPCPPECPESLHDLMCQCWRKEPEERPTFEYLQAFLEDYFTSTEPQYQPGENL
# Description: as §2, §5, §6, §4
# [13] = panel of 127 kinases, FIG. 1, result in words
compound,measurement,setting,value
"COc1cc(O)c2c(c1)/C=C/C[C@H](O)[C@H](O)C(=O)/C=C\C[C@H](C)OC2=O [Compound 3, 5-Z-7-oxozeaenol]",IC50,[1],6300 nM
same,Inhibition of Kinases IC50,[2],potent inhibitory activity
same,IC50,[2],170 nM
same,Inhibition of Kinases IC50,[3],potent inhibitory activity
same,IC50,[3],110 nM
same,Inhibition of Kinases IC50,[4],potent inhibitory activity
same,IC50,[4],52 nM
COc1cc(O)c2c(c1Cl)/C=C/C[C@H](O)[C@H](O)C(=O)/C=C\C[C@H](C)OC2=O [Compound 31],Inhibition of Kinases IC50,[2],potent inhibitory activity
same,IC50,[2],1800 nM
same,inhibitory activity (IC50) in a panel of 127 kinases,[2]; [13],low micromolar concentrations; also recorded: low μM concentrations
same,Inhibition of Kinases IC50,[3],potent inhibitory activity
same,IC50,[3],210 nM
same,inhibitory activity (IC50) in a panel of 127 kinases,[3]; [13],nanomolar concentrations; also recorded: nM concentrations
same,Inhibition of Kinases IC50,[5],potent inhibitory activity
same,IC50,[5],370 nM
same,inhibitory activity (IC50) in a panel of 127 kinases,"[5]; PDGFR-β, panel of 127 kinases, FIG. 1, result in words",nanomolar concentrations; also recorded: nM concentrations
same,inhibitory activity (IC50) in a panel of 127 kinases,[6],nanomolar concentrations; also recorded: nM concentrations
same,inhibitory activity (IC50) in a panel of 127 kinases,[7],nanomolar concentrations; also recorded: nM concentrations
same,IC50,[8],440 nM
same,IC50,[9],13000 nM
same,autophosphorylation of TIE2,[10],unaffected
same,Inhibition of Kinases IC50,[4],potent inhibitory activity
same,IC50,[4],90 nM
same,inhibitory activity (IC50) in a panel of 127 kinases,[4]; [13],nanomolar concentrations; also recorded: nM concentrations
"COc1cc(O)c2c(c1OC)/C=C/C[C@H](O)[C@H](O)C(=O)/C=C\C[C@H](C)OC2=O [Compound 1, Radicicol A]",IC50,[11],9100 nM
same,IC50,[12],9600 nM
same,Inhibition of Kinases IC50,[2]; listed as Radicicol A,potent inhibitory activity (low nM)
same,Inhibition of Kinases IC50,[2]; listed as radicicol A,potent inhibitory activity
same,IC50,[2],110 nM
same,Inhibition of Kinases IC50,[3]; listed as Radicicol A,potent inhibitory activity (low nM)
same,Inhibition of Kinases IC50,[3]; listed as radicicol A,potent inhibitory activity
same,IC50,[3],66 nM
same,Inhibition of Kinases IC50,[5]; listed as Radicicol A,potent inhibitory activity (low nM)
same,Inhibition of Kinases IC50,[5]; listed as radicicol A,potent inhibitory activity
same,IC50,[5],210 nM
same,Inhibition of Kinases IC50,[4]; listed as Radicicol A,potent inhibitory activity (low nM)
same,Inhibition of Kinases IC50,[4]; listed as radicicol A,potent inhibitory activity
same,IC50,[4],26 nM

# From patent publication US8513440B2, “Compositions and methods comprising analogues of radicicol A” (Universite de Strasbourg, priority 2007, dated 2013)
